Data reported in ChEMBL document CHEMBL3045060, “Synthesis of some urea and thiourea derivatives of naphtha[1,2-d]thiazol-2-amine as anti-Parkinsonian agents that cause neuroprotection against haloperidol-induced oxidative stress in mice” (2009).

Experiments:
Assay type in all cases: functional
Mus musculus [1] = assay: Neuroprotective activity in haloperidol-induced catalepsy Mus musculus Swiss albino (mouse) model assessed as mean descent time at 100 mg/kg, po administered 30 min before haloperidol challenge measured at 120 min post challenge
Mus musculus [2] = assay: Neuroprotective activity in haloperidol-induced catalepsy Mus musculus Swiss albino (mouse) model assessed as mean descent time at 100 mg/kg, po administered 30 min before haloperidol challenge measured at 90 min post challenge
Mus musculus [3] = assay: Neuroprotective activity in haloperidol-induced catalepsy Mus musculus Swiss albino (mouse) model assessed as mean descent time at 100 mg/kg, po administered 30 min before haloperidol challenge measured at 180 min post challenge
Mus musculus [4] = assay: Neuroprotective activity in haloperidol-induced catalepsy Mus musculus Swiss albino (mouse) model assessed as mean descent time at 100 mg/kg, po administered 30 min before haloperidol challenge measured at 60 min post challenge
Mus musculus [5] = assay: Neuroprotective activity in Mus musculus Swiss albino (mouse) model assessed as reduction in haloperidol-induced catalepsy at 100 mg/kg, ip administered 30 min before haloperidol challenge measured for 30 to 180 min; set-up: scale not given: the % may be the effect or the level left; conditions: route intraperitoneal
Mus musculus [6] = assay: Neuroprotective activity in haloperidol-induced catalepsy Mus musculus Swiss albino (mouse) model assessed as mean cumulative descent time at 100 mg/kg, po administered 30 min before haloperidol challenge (reference value: 33 +/- 1.34 min)
Mus musculus [7] = assay: Neuroprotective activity in haloperidol-induced catalepsy Mus musculus Swiss albino (mouse) model assessed as mean descent time at 100 mg/kg, po administered 30 min before haloperidol challenge measured at 150 min post challenge
Mus musculus [8] = assay: Neuroprotective activity in haloperidol-induced catalepsy Mus musculus Swiss albino (mouse) model assessed as mean descent time at 100 mg/kg, po administered 30 min before haloperidol challenge measured at 30 min post challenge

SMILES	Time (Mus musculus [1]) [s]	Time (Mus musculus [2]) [s]	Time (Mus musculus [3]) [s]	Time (Mus musculus [4]) [s]	Activity (Mus musculus [5]) [%]	Time (Mus musculus [6]) [min]	Time (Mus musculus [7]) [s]	Time (Mus musculus [8]) [s]
S=C(Nc1ccc(Cl)cc1)Nc1nc2c(ccc3ccccc32)s1	216	198	228	169	27.88	18.9	232	92
Fc1ccc(NC(=S)Nc2nc3c(ccc4ccccc43)s2)cc1	246	167	241	98	34.95	17.1	232	43
S=C(Nc1nc2c(ccc3ccccc32)s1)Nc1ccccc1Br	207	189	226	160	30.96	18.1	223	83
O=C(Nc1nc2c(ccc3ccccc32)s1)Nc1cc(C(F)(F)F)ccc1Cl	156	141	148	114	51.37	12.9	150	67
O=C(Nc1ccccc1)Nc1nc2c(ccc3ccccc32)s1	174	156	176	132	44.44	14.7	172	72
O=C(Nc1ccc(Cl)cc1)Nc1nc2c(ccc3ccccc32)s1	202	171	194	127	38.61	16.2	199	78
COc1ccc(NC(=S)Nc2nc3c(ccc4ccccc43)s2)cc1	128	116	145	112	58.05	11.2	129	44
O=C(Nc1ccc(F)cc1)Nc1nc2c(ccc3ccccc32)s1	207	196	226	159	30.3	18.3	226	84
O=C(Nc1nc2c(ccc3ccccc32)s1)Nc1ccccc1Br	197	145	200	131	38.74	16.1	219	77
O=C(Nc1ccc(Br)cc1)Nc1nc2c(ccc3ccccc32)s1	191	156	218	123	37.76	16.4	214	82
O=C(Nc1nc2c(ccc3ccccc32)s1)Nc1ccccc1[N+](=O)[O-]	87	57	145	54	72.05	7.67	98	19
Cc1ccc(NC(=O)Nc2nc3c(ccc4ccccc43)s2)cc1	161	137	171	113	48.56	13.7	168	69
Cc1ccccc1NC(=O)Nc1nc2c(ccc3ccccc32)s1	166	138	172	116	47.64	13.9	170	71
Fc1ccccc1NC(=S)Nc1nc2c(ccc3ccccc32)s1	183	152	234	143	38.35	16.2	206	57
S=C(Nc1ccc(Br)cc1)Nc1nc2c(ccc3ccccc32)s1	222	161	220	139	35.27	17	223	57
Cc1ccc(NC(=S)Nc2nc3c(ccc4ccccc43)s2)cc1	161	136	172	114	47.97	13.8	173	72
Cc1ccccc1NC(=S)Nc1nc2c(ccc3ccccc32)s1	157	138	166	110	49.87	13.3	160	68
N[C@@H](Cc1ccc(O)c(O)c1)C(=O)O [LEVODOPA]	119	99	137	49	65.64	9.3	122	32
O=C(Nc1nc2c(ccc3ccccc32)s1)Nc1ccccc1F	236	188	272	118	29.12	18.6	245	57
O=C(Nc1ccc(Oc2ccccc2)cc1)Nc1nc2c(ccc3ccccc32)s1	132	119	140	110	55.56	11.9	135	76
COc1cc(NC(=O)Nc2nc3c(ccc4ccccc43)s2)cc(OC)c1OC	89	85	109	68	70.29	8.12	107	29
S=C(Nc1nc2c(ccc3ccccc32)s1)Nc1ccccc1Cl	190	173	186	156	39.14	16.1	189	69
O=C(Nc1nc2c(ccc3ccccc32)s1)Nc1ccccc1Cl	188	159	232	141	37.37	16.5	211	59
O=C(Nc1ccc([N+](=O)[O-])cc1)Nc1nc2c(ccc3ccccc32)s1	229	176	269	113	31.28	18.1	245	51
COc1ccc(NC(=O)Nc2nc3c(ccc4ccccc43)s2)cc1	131	122	138	99	58.51	11.1	136	41
